Assay results: US12227520B2 (priority 2019, dated 2025)
pEC50: −log10 of the molar value. Read-outs that look alike come from different tables or passages of the source.

Experiments:
HIV-1 (IIIB) = assay: Antiviral assay in MT-4 cells (HIV MT-4 antiviral assay); assay type: cell-based; settings: Human immunodeficiency virus 1, IIIB, MT4, 120 h, HIV-1 (IIIB) in MT-4 cells, 5 days incubation
In short: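 MT-4 cells infected with HIV-1 IIIB (1:250 diluted stock) and exposed to 1:3 serially diluted compound in RPMI with 10% FBS. Viability read by CellTiter-Glo luminescence after 5 days at 37° C; mock-infected cells and 5 μM AZT as controls.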

pLai RLuc reporter virus = assay: microbe, parasite or virus in culture; assay type: cell-based, HIV
In short: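 MT-4 cells pre-infected 2 h at 37 °C with pLai RLuc virus, then exposed to 1:3 serial dilutions of compound in RPMI/10% FBS with or without 50% human serum for 72 h at 37 °C. Renilla luminescence read-out; serum shift = EC50(HS/CCM)/EC50(CCM).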

[1] = Cytotoxicity assay in MT-4 cells; assay type: cell-based, human; settings: human, uninfected MT-4 cells, 5 days incubation; read-out: CC50
In short: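 Infected MT-4 cells (HIV-1 IIIB, fresh 1:250 dilution of concentrated stock) or mock-infected cells exposed to compounds for 5 days at 37 °C. Viability by CellTiter-Glo luminescence; 5 μM AZT positive control, no-drug negative control. Uninfected cells used for cytotoxicity, with 10 μM puromycin as base-level cytotoxicity control.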

[2] = Human immunodeficiency virus 1, 72 h, read-out: Antiviral Serum Shift RLuc 50% HS, HS/CCM (RPMI media, 10% FBS, 50% HS, 1% P/S), 72-h incubation
[3] = Human immunodeficiency virus 1, 72 h, read-out: Antiviral Serum Shift RLuc CCM, CCM (RPMI media, 10% FBS, 1% P/S), 72-h incubation

Compound	pEC50 (HIV-1 (IIIB); read-out: EC50)	pEC50 (pLai RLuc reporter virus; [2])	pEC50 (pLai RLuc reporter virus; [3])	CC50 at 5 days [1] [nM]	pEC50 (pLai RLuc reporter virus; read-out: Antiviral Serum Shift RLuc 50% HS, HS/CCM (RPMI media, 10% FBS, 50% HS, 1% P/S), 72-h incubation)	pEC50 (HIV-1 (IIIB))
O=C(NCc1ccc(F)c(Cl)c1F)c1cn2c(c(O)c1=O)C(=O)N1CCC=C(F)[C@@H]2C1 (single isomer, unassigned) [Example 123-2]	8.71	6.36	9.61	14600	–	–
O=C(NCc1c(F)cc(F)cc1F)c1cn2c(c(O)c1=O)C(=O)N1Cc3ccc(Cl)cc3C[C@H]2C1 (single isomer, unassigned) [Example 127-1]	8.86	8.53	9.49	5630	–	–
O=C(NCc1ccc(F)cc1F)c1cn2c(c(O)c1=O)C(=O)N1Cc3ccc(Cl)cc3C[C@H]2C1 (single isomer, unassigned) [Example 128-1]	8.67	8.12	9.12	> 47200	–	–
O=C(NCc1c(F)cc(F)cc1F)c1cn2c(c(O)c1=O)C(=O)N1Cc3cc(F)c(F)cc3C[C@@H]2C1 (single isomer, unassigned) [Example 159]	8.45	8.59	9.01	> 43600	–	–
C[C@@]12Cc3cc(F)c(F)cc3CN(C1)C(=O)c1c(O)c(=O)c(C(=O)NCc3c(F)cc(F)cc3F)cn12 (single isomer, unassigned) [Example 191-1]	8.58	8.57	9.21	11600	–	–
C[C@]12Cc3cc(F)c(F)cc3CN(C1)C(=O)c1c(O)c(=O)c(C(=O)NCc3c(F)cc(F)cc3F)cn12 (single isomer, unassigned) [Example 191-2]	8.84	8.71	9.44	11800	–	–
O=C(NCc1c(F)cc(F)cc1F)c1cn2c(c(O)c1=O)C(=O)N1CCCC(CF)C2C1 (single isomer, unassigned) [Example 194-1, 6-(fluoromethyl)-12-hydroxy-1,11-dioxo-N-(2,4,6-trifluorobenzyl)-1,4,5,6,7,11-hexahydro-3H-2,7-methanopyrido[1,2-a][1,4]diazonine-10-carboxamide]	8.86	–	9.17	10800	6.65	–
O=C(NCc1ccc(F)cc1F)c1cn2c(c(O)c1=O)C(=O)N1CCCOC[C@@H]2C1 [Example 1-1, (S)-N-(2,4-difluorobenzyl)-13-hydroxy-1,12-dioxo-1,4,5,7,8,12-hexahydro-3H-2,8-methanopyrido[1,2-d][1,4,7]oxadiazecine-11-carboxamide]	7.78	8.31	8.44	> 50000	–	–
O=C(NCc1ccc(F)cc1F)c1cn2c(c(O)c1=O)C(=O)N1CCCOC[C@H]2C1 [Example 1-2, (R)-N-(2,4-difluorobenzyl)-13-hydroxy-1,12-dioxo-1,4,5,7,8,12-hexahydro-3H-2,8-methanopyrido[1,2-d][1,4,7]oxadiazecine-11-carboxamide]	8.24	7.86	8.86	20700	–	–
O=C(NCc1c(F)cc(F)cc1F)c1cn2c(c(O)c1=O)C(=O)N1C[C@H]2CCC(F)(F)C1 [Example 3-1, (7R)-4,4-difluoro-12-hydroxy-1,11-dioxo-N-(2,4,6-trifluorobenzyl)-1,4,5,6,7,11-hexahydro-3H-2,7-methanopyrido[1,2-a][1,4]diazonine-10-carboxamide]	8.38	7.15	9.07	> 40200	–	–
O=C(NCc1c(F)cc(F)cc1F)c1cn2c(c(O)c1=O)C(=O)N1C[C@@H]2CCC(F)(F)C1 [Example 3-2, (7S)-4,4-difluoro-12-hydroxy-1,11-dioxo-N-(2,4,6-trifluorobenzyl)-1,4,5,6,7,11-hexahydro-3H-2,7-methanopyrido[1,2-a][1,4]diazonine-10-carboxamide]	8.27	8.41	8.80	> 43300	–	–
O=C(NCc1ccc(F)cc1F)c1cn2c(c(O)c1=O)C(=O)N1C[C@@H]2CCC(F)(F)C1 [Example 4-2, (7S)-N-(2,4-difluorobenzyl)-4,4-difluoro-12-hydroxy-1,11-dioxo-1,4,5,6,7,11-hexahydro-3H-2,7-methanopyrido[1,2-a][1,4]diazonine-10-carboxamide]	8.32	8.36	8.95	10700	–	–
O=C(NCc1ccc(F)cc1F)c1cn2c(c(O)c1=O)C(=O)N1CCCCC[C@@H]2C1 [Example 5-1, (8R)-N-(2,4-difluorobenzyl)-13-hydroxy-1,12-dioxo-1,3,4,5,6,7,8,12-octahydro-2,8-methanopyrido[1,2-a][1,4]diazecine-11-carboxamide]	8.70	8.91	9.63	11100	–	–
O=C(NCc1ccc(F)cc1F)c1cn2c(c(O)c1=O)C(=O)N1CCCCC[C@H]2C1 [Example 5-2, (8S)—N-(2,4-difluorobenzyl)-13-hydroxy-1,12-dioxo-1,3,4,5,6,7,8,12-octahydro-2,8-methanopyrido[1,2-a][1,4]diazecine-11-carboxamide]	8.54	6.85	9.14	19500	–	–
C[C@@H]1[C@H]2CCCCN1C(=O)c1c(O)c(=O)c(C(=O)NCc3ccc(F)cc3F)cn12 [Example 7, (7R,13R)—N-(2,4-difluorobenzyl)-12-hydroxy-13-methyl-1,11-dioxo-1,4,5,6,7,11-hexahydro-3H-2,7-methanopyrido[1,2-a][1,4]diazonine-10-carboxamide]	8.85	8.83	9.55	8810	–	–
C[C@H]1[C@@H]2CCCCN1C(=O)c1c(O)c(=O)c(C(=O)NCc3c(F)cc(F)cc3F)cn12 [Example 8, (7S, 13S)-12-hydroxy-13-methyl-1,11-dioxo-N-(2,4,6-trifluorobenzyl)-1,4,5,6,7,11-hexahydro-3H-2,7-methanopyrido[1,2-a][1,4]diazonine-10-carboxamide]	–	8.85	9.39	20800	–	8.82
C[C@H]1[C@H]2CCCCN1C(=O)c1c(O)c(=O)c(C(=O)NCc3ccc(F)cc3F)cn12 [Example 9, (7R,13S)—N-(2,4-difluorobenzyl)-12-hydroxy-13-methyl-1,11-dioxo-1,4,5,6,7,11-hexahydro-3H-2,7-methanopyrido[1,2-a][1,4]diazonine-10-carboxamide]	8.74	8.77	9.48	6610	–	–
C[C@]1(O)CCCN2C[C@H]1n1cc(C(=O)NCc3ccc(F)cc3F)c(=O)c(O)c1C2=O [Example 14-1, (6S,7R)—N-(2,4-difluorobenzyl)-6,12-dihydroxy-6-methyl-1,11-dioxo-1,4,5,6,7,11-hexahydro-3H-2,7-methanopyrido[1,2-a][1,4]diazonine-10-carboxamide]	8.52	8.73	9.10	22200	–	–
C[C@@]1(O)CCCN2C[C@@H]1n1cc(C(=O)NCc3ccc(F)cc3F)c(=O)c(O)c1C2=O [Example 14-2, (6R,7S)—N-(2,4-difluorobenzyl)-6,12-dihydroxy-6-methyl-1,11-dioxo-1,4,5,6,7,11-hexahydro-3H-2,7-methanopyrido[1,2-a][1,4]diazonine-10-carboxamide]	8.57	9.38	9.25	19900	–	–
O=C(NCc1c(F)cc(F)cc1F)c1cn2c(c(O)c1=O)C(=O)N1CCC[C@@H](F)[C@@H]2C1 [Example 15-1, (6R,7S)-6-fluoro-12-hydroxy-1,11-dioxo-N-(2,4,6-trifluorobenzyl)-1,4,5,6,7,11-hexahydro-3H-2,7-methanopyrido[1,2-a][1,4]diazonine-10-carboxamide]	8.77	7.94	9.49	18300	–	–
O=C(NCc1c(F)cc(F)cc1F)c1cn2c(c(O)c1=O)C(=O)N1CCC[C@H](F)[C@H]2C1 [Example 15-2, (6S, 7R)-6-fluoro-12-hydroxy-1,11-dioxo-N-(2,4,6-trifluorobenzyl)-1,4,5,6,7,11-hexahydro-3H-2,7-methanopyrido[1,2-a][1,4]diazonine-10-carboxamide]	8.85	8.36	9.54	15300	–	–
O=C(NCc1ccc(F)cc1F)c1cn2c(c(O)c1=O)C(=O)N1CCCC(F)(F)[C@@H]2C1 [Example 16-1, (7S)-N-(2,4-difluorobenzyl)-6,6-difluoro-12-hydroxy-1,11-dioxo-1,4,5,6,7,11-hexahydro-3H-2,7-methanopyrido[1,2-a][1,4]diazonine-10-carboxamide]	8.68	8.49	9.60	14400	–	–
